Measurements reported in article PMC5368959, “Uricosuric targets of tranilast” (Pharmacology Research & Perspectives, 2017).
“And” between values parts separate entries of the source, which are not always exact repeats. Identical values can stand only once. Like-named read-outs stand apart in the source and are kept apart here.

Columns and labels:
GLUT9a = target: T1, GLUT9a (Homo sapiens, UniProt Q9NRM0); assay: [14C]-urate uptake by GLUT9a-expressing Xenopus oocytes; format: cell-based; conditions: for IC50: 40 μmol/L urate, NaCl medium, read-out: IC50, GLUT9a-mediated [14C]-urate uptake
T1 sequence (Q9NRM0 1-540): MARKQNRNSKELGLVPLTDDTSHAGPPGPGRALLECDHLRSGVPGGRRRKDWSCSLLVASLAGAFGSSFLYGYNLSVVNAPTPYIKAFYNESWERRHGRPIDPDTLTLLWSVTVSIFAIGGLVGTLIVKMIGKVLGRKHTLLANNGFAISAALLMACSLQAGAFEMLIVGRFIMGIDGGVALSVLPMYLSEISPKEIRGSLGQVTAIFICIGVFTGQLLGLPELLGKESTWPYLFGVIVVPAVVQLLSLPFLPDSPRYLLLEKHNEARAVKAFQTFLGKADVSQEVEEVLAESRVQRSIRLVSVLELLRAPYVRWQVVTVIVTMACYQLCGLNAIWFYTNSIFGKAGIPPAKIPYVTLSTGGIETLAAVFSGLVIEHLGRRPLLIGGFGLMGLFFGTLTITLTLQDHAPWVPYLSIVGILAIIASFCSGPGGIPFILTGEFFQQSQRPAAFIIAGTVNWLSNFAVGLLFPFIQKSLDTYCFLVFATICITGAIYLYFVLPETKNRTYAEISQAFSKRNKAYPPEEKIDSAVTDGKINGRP
Text: (§1) For uptake experiments, oocytes were washed four times with ND96 medium (pH 7.4) without pyruvate and gentamycin.
We sought to investigate the effect of tranilast on GLUT9a‐mediated [^14C]‐urate uptake in Xenopus laevis oocytes.

OAT10 = OAT10 (Homo sapiens, UniProt Q9Y226); assay: [14C]-urate uptake by OAT10-expressing Xenopus oocytes; format: cell-based; conditions: for Inhibition of OAT10-mediated urate uptake: drug 100 μmol/L, PZA-preloaded oocytes
Text: as §1
(A) Time course of [^14C]‐urate uptake by control and […] oocytes. […] Inset, western blot analysis of OAT10 protein expressed in oocytes. […] (C) [^14C]‐urate transport properties of OAT10: voltage sensitivity and Na+‐dependence was examined by replacing extracellular NaCl by KCl or LiCl. Existence of urate/Cl^− exchange mechanism or Cl^− dependence or cis‐inhibitory effects of extracellular Cl^− on was verified by [^14C]‐urate uptake via OAT10 in the absence of extracellular Cl^− ion (0 Cl^−). In 0 Cl^− bath, NaCl was replaced by Na‐gluconate (Na‐Gluc), KCl by K‐gluconate (K‐Gluc), MgCl2 by Mg‐gluconate, and CaCl2 by Ca‐gluconate. […] Data are mean ± S.E. with n = 12–15.

SMCT2 = target: T2, SMCT2 (Homo sapiens, UniProt Q1EHB4); assay: [14C]-nicotinate uptake by SMCT2-expressing Xenopus oocytes; format: cell-based; conditions: for IC50: data not shown, read-out: IC50, SMCT2-mediated [14C]-nicotinate uptake
T2 sequence (Q1EHB4 1-618): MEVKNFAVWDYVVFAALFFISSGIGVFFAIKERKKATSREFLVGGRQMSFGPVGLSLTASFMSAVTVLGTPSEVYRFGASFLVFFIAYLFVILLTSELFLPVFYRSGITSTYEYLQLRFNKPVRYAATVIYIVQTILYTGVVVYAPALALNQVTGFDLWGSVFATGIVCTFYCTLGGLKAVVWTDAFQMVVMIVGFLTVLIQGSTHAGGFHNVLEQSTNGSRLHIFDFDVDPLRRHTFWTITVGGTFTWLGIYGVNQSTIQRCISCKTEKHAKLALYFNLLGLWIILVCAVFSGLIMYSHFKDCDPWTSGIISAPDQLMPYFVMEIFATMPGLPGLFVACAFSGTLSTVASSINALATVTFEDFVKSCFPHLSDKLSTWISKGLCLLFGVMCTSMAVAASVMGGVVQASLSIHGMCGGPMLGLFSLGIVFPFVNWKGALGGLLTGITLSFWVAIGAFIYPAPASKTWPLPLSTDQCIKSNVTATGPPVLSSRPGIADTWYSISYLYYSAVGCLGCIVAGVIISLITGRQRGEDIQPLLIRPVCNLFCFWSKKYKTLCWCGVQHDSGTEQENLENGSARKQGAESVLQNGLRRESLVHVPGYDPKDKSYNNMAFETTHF
Method: as §1
Chloride ion‐dependence was also assessed; in 0 Cl^− bath, NaCl was replaced by Na‐gluconate (Na‐Gluc), KCl by K‐gluconate (K‐Gluc), MgCl2 by Mg‐gluconate, and CaCl2 by Ca‐gluconate. […] Data are mean ± S.E. with n = 12–15.

ABCG2 = target: T3, ABCG2 (Homo sapiens, UniProt Q9UNQ0); assay: [14C]-urate efflux from ABCG2-expressing Xenopus oocytes
T3 sequence (Q9UNQ0 1-655): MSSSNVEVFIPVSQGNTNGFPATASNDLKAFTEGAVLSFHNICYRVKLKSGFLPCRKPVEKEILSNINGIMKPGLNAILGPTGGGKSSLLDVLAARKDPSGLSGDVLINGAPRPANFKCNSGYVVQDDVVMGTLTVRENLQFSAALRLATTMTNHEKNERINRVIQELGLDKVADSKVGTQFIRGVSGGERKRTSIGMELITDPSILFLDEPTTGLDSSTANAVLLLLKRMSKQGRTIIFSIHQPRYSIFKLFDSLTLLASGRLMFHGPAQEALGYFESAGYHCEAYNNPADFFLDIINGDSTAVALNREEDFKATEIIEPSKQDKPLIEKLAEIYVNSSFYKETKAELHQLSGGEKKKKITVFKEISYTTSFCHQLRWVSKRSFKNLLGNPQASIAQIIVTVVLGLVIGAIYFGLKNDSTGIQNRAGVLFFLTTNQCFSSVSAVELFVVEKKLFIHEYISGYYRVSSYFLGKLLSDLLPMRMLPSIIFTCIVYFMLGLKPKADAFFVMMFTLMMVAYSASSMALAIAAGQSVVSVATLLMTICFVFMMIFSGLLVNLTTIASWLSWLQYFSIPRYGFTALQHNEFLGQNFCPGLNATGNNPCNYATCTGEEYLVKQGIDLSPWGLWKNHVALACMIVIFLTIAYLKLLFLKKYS
Method: In brief, a small incision was made in the abdomen and a lobe of ovary was removed. […] Oocytes were then defolliculated by treatment with 3.5 mg/mL collagenase A (Roche, Indianapolis, IN) in Ca^2+‐free ND96 medium for 60–70 min with gentle agitation at room temperature (25°C).
The indicated full‐length cDNAs were subcloned into the pGEMHE oocyte expression plasmid, 3′ of a T7 promoter and flanked by Xenopus laevis‐specific 5′‐ and 3′‐UTRs. Plasmid DNA was linearized at the 3′‐end of cDNAs by Not1, Nhe1, or EcoR1 digestion, and cRNA was in vitro transcribed by using T7 RNA polymerase (mMESSAGE mMACHINE; Ambion, Austin, TX) following the suppliers protocol. Isopropanol‐precipitated, in vitro transcribed capped cRNA was washed with 70% ethanol, dried and then dissolved in sterile nuclease‐free water. The yield and RNA integrity of the capped cRNA samples were assessed by spectroscopy (at 260 nm) and 1% agarose‐formaldehyde gel electrophoresis, respectively. All cRNA samples were stored frozen in aliquots at −80°C until used. About 18 h after isolation, oocytes were injected with 50 nL of sterile water, 50 mmol/L tris pH 7.4, or 50 nL of a cRNA solution in 50 mmol/L tris buffer (pH 7.4) containing 25 ng of the indicated cRNA using fine‐tipped micropipettes by a microinjector (World Precision Instrument Inc. Sarasota, FL).
Preinjected oocytes were then incubated in ND96 medium for 1 h at 16°C for recovery. After incubation, the oocytes were washed in cold ND96 medium four times to remove any external adhering [^14C]‐urate from the oocytes and then subjected to efflux for 1 h at room temperature (~25°C) in ND96 medium (pH 7.4) in the absence or presence of drug.
Radioisotope content of each individual oocyte was measured by scintillation counter after solubilization in 0.3 mL of 10% (v/v) SDS and addition of 2.5 mL of scintillation fluid. […] Statistical analyses including linear regressions were done using SigmaPlot software.
We investigated the effect of tranilast (added in the efflux assay medium) on the [^14C]‐urate efflux activity of ABCG2 expressed in Xenopus laevis oocytes. […]

[1] = human, Xenopus laevis oocytes expressing ABCG2, pH 7.4, probe [14C]-urate

Sequence of OAT10 (Q9Y226 whole entry): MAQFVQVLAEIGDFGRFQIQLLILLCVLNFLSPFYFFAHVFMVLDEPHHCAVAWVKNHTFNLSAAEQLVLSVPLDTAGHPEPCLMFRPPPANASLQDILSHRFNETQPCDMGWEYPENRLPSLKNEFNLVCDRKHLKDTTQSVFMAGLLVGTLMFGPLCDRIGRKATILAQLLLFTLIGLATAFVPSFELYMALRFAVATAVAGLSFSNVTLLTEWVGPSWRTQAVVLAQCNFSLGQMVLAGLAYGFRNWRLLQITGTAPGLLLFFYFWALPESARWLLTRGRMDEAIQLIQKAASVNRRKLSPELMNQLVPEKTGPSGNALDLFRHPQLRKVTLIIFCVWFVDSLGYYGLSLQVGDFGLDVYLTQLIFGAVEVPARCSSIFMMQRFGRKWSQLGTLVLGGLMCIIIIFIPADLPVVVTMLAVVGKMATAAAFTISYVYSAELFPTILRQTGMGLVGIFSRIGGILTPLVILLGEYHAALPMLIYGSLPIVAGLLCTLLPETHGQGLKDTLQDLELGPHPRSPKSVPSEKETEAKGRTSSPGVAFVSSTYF

| Structure (SMILES) | GLUT9a urate transport inhibition after washing and removal of inhibitor (GLUT9a) | Inhibition of GLUT9a urate uptake (GLUT9a) | Reversibility of GLUT9a inhibition (GLUT9a) | IC50 (GLUT9a) [µM] | IC50 (OAT10) [µM] | Inhibition of OAT10-mediated urate uptake (OAT10) | IC50 (SMCT2) | inhibition at 1 h, 100 μmol/L (ABCG2; [1]) [%] | inhibition at 1000 µM (GLUT9a; drug 1.0 mmol/L) [%] | Reversibility of GLUT9a inhibition (GLUT9a; washout in oocytes) | inhibition at 1000 µM (OAT10; read-out: Inhibition of OAT10 urate transport activity) [%] | Inhibition of SMCT2 nicotinate uptake (SMCT2; drug 1.0 mmol/L) | inhibition at 1 h, 1 mmol/L (ABCG2; [1]) [%] | Vmax of GLUT9a-mediated urate uptake (GLUT9a) | mode of inhibition of GLUT9a-mediated urate transport (GLUT9a) | Ki (GLUT9a; Eadie-Hofstee analysis, read-out: inhibition constant (Ki) for GLUT9a-mediated urate uptake) [µM] | IC50 for GLUT9a under membrane depolarization (GLUT9a; depolarized vs polarized, data not shown) | IC50 (OAT10; data not shown, read-out: IC50, [14C]-urate uptake by OAT10) [µM] | Effect on ABCG2-mediated urate efflux (ABCG2; drug 100 μmol/L, efflux 1 h) |
| --- | --- | --- | --- | --- | --- | --- | --- | --- | --- | --- | --- | --- | --- | --- | --- | --- | --- | --- | --- |
| CCc1oc2ccccc2c1C(=O)c1cc(Br)c(O)c(Br)c1 [benzbromarone] | substantially inhibited | efficiently inhibited | not reversible | ~14.2 | ~20 | very efficiently inhibited | ~61.3 µM | ~48 |  |  |  |  |  |  |  |  |  |  |  |
| CCCN(CCC)S(=O)(=O)c1ccc(C(=O)O)cc1 [probenecid] |  |  |  |  |  |  |  |  | ~60 | not reversible | ~65 | remained almost unaffected | ~20 |  |  |  |  |  |  |
| COc1ccc(C=CC(=O)Nc2ccccc2C(=O)O)cc1OC [tranilast, N‐(3,4‐dimethoxycinnamoyl) anthranilic acid] | almost no inhibition | efficiently inhibited |  | ~15.6 |  | very efficiently inhibited | ~1000 µM and > 185 µM |  |  |  |  |  |  | 108.4 pmoles/oocyte/h and 61 pmoles/oocyte/h | noncompetitive (mixed) inhibition | 17.1 ± 1.3 | remained unchanged | ~31 | remained unaffected |
